Tests used:
[1] = test system: NCI-H660 NEPC cell line-derived xenografts; assay: NCI-H660 NEPC xenograft in SCID mice; assay type: in vivo; details: 46 days of treatment, 30 mg/kg
Experimental: (§1) For xenograft studies, 6-10-week-old CB17 severe combined immunodeficiency (SCID) mice obtained from the University of Michigan breeding colony were used. For syngeneic studies, 6-10-week-old C57BL6 mice obtained from Jackson Laboratories were used. Subcutaneous tumors were established at both sides of the dorsal flank of the mice by injecting 1×10^6 cells in […] of 50:50 Matrigel and serum-free media. Tumors were measured 2-3 times per week using digital calipers following the formula (π/6) (L×W2), where L=length and W=width of the tumor. At the end of the studies, mice were sacrificed, and tumors extracted and weighed.
Given the hypoxic and nutrient-depleted environments of NEPC Guo et al., Nat Commun. 2019; 10(1):278; Qi et al., Cancer Cell. 2010; 18(1):23-38., it was hypothesized that NEPC may be dependent on autophagy and sensitive to PIKfyve inhibition by ESK981. To test this NEPC prostate patient-derived xenograft (PDX) of NCI-H660, LTL331R, and LTL610 were subcutaneously grown into non-castrated SCID mice until tumors reached an average size of 100 mm^3, after which mice were randomized into two groups. Mice in each group received either vehicle or 30 mg/kg ESK981 five days per week. […] The anti-tumor effect of ESK981 was in turn confirmed in two additional NEPC PDX models including LTL331R (FIGS. 12-14) and LTL610 xenografts (FIG. 15-17). […]

7940B orthotopic tumors = assay: 7940B syngeneic orthotopic model in C57BL/6 mice; assay type: in vivo, mouse; details: ESK981 30 mg/kg QD PO, trametinib 1 mg/kg QD PO
[2] = test system: MIA-PaCa-2 human PDAC cell line xenograft; assay: MIA-PaCa-2 PDAC xenograft (CDX) in SCID mice; assay type: in vivo; details: Day 36 versus Day 1
Experimental: as §1
Terminal dUTP Nick End Labeling (TUNEL) staining was performed with an In Situ Cell Death Detection Kit (TMR Red #12156792910; Roche Applied Science) following the manufacturer's instructions. Briefly, fixed sections were permeabilized using Triton X-100 followed by PBS washing. The labelling reaction was performed at 37° C. for 1 hour by addition of the reaction buffer containing enzymes. Images were acquired using a Zeiss Axiolmager M1 microscope.
Given the enhanced autophagy dependence of PDAC and the urgent need for new therapies, ESK981 was investigated for efficacy in combatting this type of cancer. […]

LTL545 NEPC PDX tumors = assay: LTL545 NEPC PDX model; details: mouse, in vivo
ACC1 = molecular target: T1, ACC1 (Homo sapiens, UniProt Q13085); assay: Immunoblot of ACC1 phosphorylation status upon ND646; assay type: cell-based; details: MIA PaCa-2, PANC-1, 7940B cells
T1 construct: endogenous in cells; host or cells: MIA PaCa-2 (human PDAC)
Experimental: Cell lysates were prepared in RIPA buffer (ThermoFisher Scientific) supplemented with Halt™ Protease and Phosphatase Inhibitor Cocktail (ThermoFisher Scientific). Total protein was measured by DC™ Protein Assay Kit II (BIO-RAD). An equal amount of protein was resolved in NuPAGE™ 3 to 8%, Tris-Acetate Protein Gel (ThermoFisher Scientific) or NuPAGE™ 4 to 12%, Bis-Tris Protein Gel (ThermoFisher Scientific), blocked with 5% nonfat dry milk in TBS-T and blotted with primary antibodies overnight. Following incubation with HRP-conjugated secondary antibodies, membranes were imaged on an Odyssey CLx Imager (LiCOR Biosciences).

[3] = test system: MIA PaCa-2, PANC-1, and 7940B cell lines; assay: Confluence assays of ND646 with PIKfyve inhibitors; assay type: cell-based, human and mouse; details: ND646 100 nM (MIA PaCa-2, PANC-1), 1000 nM (7940B)
Experimental: (§2) Cells were seeded in a clear 96-well plate overnight prior to treatment. Upon treatment with indicated compounds, plates were incubated in an Incucyte S3 2022 Rev1 (Sartorious), with 10× images taken every 4 hours, and well confluence was analyzed to assess for proliferation.

7940B cells = assay: Real-time oxygen consumption rate (Resipher) in 7940B cells; assay type: cell-based, mouse; details: apilimod 100 nM, ESK981 1000 nM, bafilomycin 100 nM, chloroquine 100 μM
Experimental: Real-time monitoring of basal oxygen consumption rate was performed using a Resipher (Lucid Scientific). […] Immediately following treatment with an additional 50 μl of medium (for a total of 100 μl), OCR monitoring was started by placing the Resipher device on the cells, which was incubated at 37° C. and 5% CO2 for 24 hours.

[4] = test system: PDAC cells (7940B, PANC-1, Panc 04.03); assay: Rescue of antiproliferative effects with ferric ammonium citrate (FAC); assay type: cell-based, human and mouse; details: with ferric ammonium citrate and ferrostatin-1 (1 μM)
Experimental: as §2

**Q.** How did the adverse events [1] turn out when `CC(C)Cn1c2ccc(Nc3ncccn3)cc2c2c3c(c4c(c21)CCc1nn(C)cc1-4)C(=O)NC3` [ESK981, 13-isobutyl-4-methyl-10-(pyrimidin-2-ylamino)-1,2,4,7,8,13-hexahydro-6H-indazolo[5,4-a]pyrrolo[3,4-c]carbazol-6-one] was run?
**A.** no adverse events were observed

**Q.** What about the “mouse body weight throughout the treatment course” value (7940B orthotopic tumors) of the same compound?
**A.** did not impact mouse body weight

**Q.** And the “rate of tumor regression (waterfall plot)” value [2]?
**A.** 64%

**Q.** And the “individual tumors regressed (waterfall plot)” value (LTL545 NEPC PDX tumors)?
**A.** 80%

**Q.** What about the tumors cured (LTL545 NEPC PDX tumors) of the same compound?
**A.** 80%

**Q.** `COc1ccccc1[C@H](Cn1c(=O)n(C(C)(C)C(N)=O)c(=O)c2c(C)c(-c3ncco3)sc21)OC1CCOCC1` [ND646] was tested. Which “phosphorylation status of ACC1 (p-ACC1)” value (ACC1) did it give?
**A.** on-target effects

**Q.** And the “sensitization to ESK981 (confluence)” value ([3]; ESK981 30 nM or 100 nM)?
**A.** sensitized

**Q.** And the “sensitization to apilimod (confluence)” value ([3]; apilimod 100 nM or 50 nM)?
**A.** sensitized

**Q.** With `CO/C1=C\C(C)=C\[C@@H](C)[C@@H](O)[C@@H](C)C/C(C)=C/C=C/[C@H](OC)[C@@H]([C@@H](C)[C@@H](O)[C@H](C)[C@@]2(O)C[C@@H](O)[C@H](C)[C@@H](C(C)C)O2)OC1=O` [bafilomycin A1] as the compound, how does the “OCR through 24 hours of treatment” value (7940B cells) read?
**A.** significantly decreased OCR

**Q.** And the “antiproliferative effects upon addition of FAC” value [4]?
**A.** drastically attenuated

**Q.** Which “mouse body weight throughout the treatment course” value (7940B orthotopic tumors) does the source give for `CC(=O)Nc1cccc(-n2c(=O)n(C3CC3)c(=O)c3c(Nc4ccc(I)cc4F)n(C)c(=O)c(C)c32)c1` [trametinib] here?
**A.** did not impact mouse body weight

Reference: patent US20260053801A1, “METHOD FOR TREATING AUTOPHAGY DEPENDENT CANCER WITH A PIKFYVE INHIBITOR” (The Regents of the University of Michigan, priority 2023, published 2026)
